Reference: BindingDB's records for doi:10.1016/j.bmcl.2007.04.071 (Berlex Biosciences, 2007)

Target: T1, 3-phosphoinositide-dependent protein kinase 1 (Homo sapiens, UniProt O15530)
T1 sequence (O15530 whole entry): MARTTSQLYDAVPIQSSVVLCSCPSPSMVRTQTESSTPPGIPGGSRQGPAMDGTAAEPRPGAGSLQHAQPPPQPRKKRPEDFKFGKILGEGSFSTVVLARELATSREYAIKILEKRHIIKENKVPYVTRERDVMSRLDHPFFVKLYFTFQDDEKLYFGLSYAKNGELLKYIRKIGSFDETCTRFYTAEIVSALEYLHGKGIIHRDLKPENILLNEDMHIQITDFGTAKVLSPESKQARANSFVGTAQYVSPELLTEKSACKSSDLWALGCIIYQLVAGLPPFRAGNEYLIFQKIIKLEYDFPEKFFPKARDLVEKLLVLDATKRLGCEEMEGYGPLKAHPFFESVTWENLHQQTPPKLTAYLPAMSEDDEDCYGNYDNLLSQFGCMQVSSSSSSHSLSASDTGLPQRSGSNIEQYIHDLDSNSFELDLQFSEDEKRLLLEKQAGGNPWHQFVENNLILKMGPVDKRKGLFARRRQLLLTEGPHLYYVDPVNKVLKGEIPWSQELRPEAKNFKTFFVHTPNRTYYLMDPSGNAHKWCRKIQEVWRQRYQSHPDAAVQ
Assay: PDK1-mediated AKT2 Activation Assay (cAKT2 33P-SPA)
Conditions: pH 7.2; 22 °C

IC50: 200 nM
SMILES: O=C1Nc2ccc(-c3nnn[nH]3)cc2C1=Cc1ccc[nH]1 [(3Z)-3-(1H-pyrrol-2-ylmethylidene)-5-(1H-1,2,3,4-tetrazol-5-yl)-2,3-dihydro-1H-indol-2-one]
